Assays:
HAS2 gene [1] = assay: Quantitative RT-PCR of HAS2 mRNA in keratinocyte cell line HaCaT; type: cell-based, human; conditions: HaCaT cells; for increase in HAS2 transcription: 1 μM compound K
Description: (§1) The cells were cultured in Dulbecco's modified Eagle's medium (DMEM) supplemented with 10% fetal bovine serum (HyClone), sodium bicarbonate (3.6 g/l) and antibiotics of streptomycin (100 μg/ml) and penicillin (100 U/ml) (Life Technologies, Inc.) at 37° C. in a humidified atmosphere containing 5% CO2 and 95% air. The culture was changed with fresh medium every 3 days. On reaching the maximum cell-density, the cells were recultured at a 1:5 division ratio. 48 hours before treatment with compound K, the cells were seeded into a tissue culture flask at 1×10^5 cells per 75 cm^2 and cultured in the medium with 10% fetal bovine serum for 24 hours. Subsequently, the cells were cultured in the serum-free medium for another 24 hours and then in fresh serum-free medium supplemented with 1 to 5 μM of compound K for 3, 6, 12, 24 or 48 hours. As a control, the cells were cultured in the medium supplemented with 0.01% vehicle (dimethylsulfoxide, DMSO). In the control, no effect of DMSO on cell growth and differentiation was observed.
(§2) HaCaT cells and HDF cells were washed twice with phosphate buffered saline (PBS) (Life Technologies, Inc.), and total cellular RNA was isolated with TRizol® reagent (GibcoBRL Life Technologies, Grand Island, N.Y.) according to manufacturer's instructions. RNA concentration was measured by spectrophotometry and RNA integrity was checked by agarose gel electrophoresis.
Quantitated total RNA was reverse transcribed, then RT-PCR was performed using HAS1-, HAS2- and HAS3-specific primers. In brief, 4 μg of total RNA was reverse transcribed in 25 μl of reaction mixture containing 2.5 U/μl Superscript II reverse transcriptase (Invitrogen, Carlsbad, Calif.), 1 U/μg RNase inhibitor, 5 mM MgCl2, 50 mM KCl, 10 mM Tris-HCl (pH8.3), 2.5 μM oligo(dT) primers and 1 mM dNTPs. The reaction mixture was gently incubated at 42° C. for 60 min, to be subjected to reverse transcription. Then, the reverse transcriptase was inactivated by heating at 85° C. for 5 min.
Subsequently, 5 μl of the resulting mixture was subjected to PCR. […]

HAS2 gene [2] = assay: Quantitative RT-PCR of HAS2 mRNA in fibroblast cell line HDF; type: cell-based, human; conditions: HDF cells, treatment with compound K for 24 hours, in comparison with no treatment
Description: as §1, with “As a control, the cells were cultured in the medium supplemented with 0.01% vehicle (dimethylsulfoxide, DMSO). In the control, no effect of DMSO on cell growth and differentiation was observed.” left out
as §2
(§3) Quantitated total RNA was reverse transcribed, then RT-PCR was performed using HAS1-, HAS2- and HAS3-specific primers. […]

HAS1 = assay: Quantitative RT-PCR of HAS1 mRNA in HaCaT cells; type: cell-based, human; conditions: 1 μM compound K, 24 or 48 hours
Description: as §1, with “As a control, the cells were cultured in the medium supplemented with 0.01% vehicle (dimethylsulfoxide, DMSO). In the control, no effect of DMSO on cell growth and differentiation was observed.” left out
as §2, §3

HAS3 = assay: Quantitative RT-PCR of HAS3 mRNA in HaCaT cells; type: cell-based, human; conditions: 1 μM compound K, 24 or 48 hours
Description: as §1, with “As a control, the cells were cultured in the medium supplemented with 0.01% vehicle (dimethylsulfoxide, DMSO). In the control, no effect of DMSO on cell growth and differentiation was observed.” left out
as §2, §3

HaCaT cells = assay: Hyaluronic acid production in cultured HaCaT cells, bHABP immunocytochemical staining; type: cell-based, human; conditions: 1 μM compound K, immunocytochemical method
Description: (§4) HaCaT and HDF cells were washed with PBS then fixed in a fixative with 2% paraformaldehyde(v/v) and 0.5% glutaraldehyde(v/v) at room temperature for 20 min. After fixation, the cells were washed three times for 2 min each with 0.1 M sodium phosphate buffer (pH7.4), then blocked in 1% bovine serum albumin (w/v) containing 0.1% Triton X-100 (v/v) in the same buffer at room temperature for 30 min. Hyaluronan staining was carried out with a specific probe of biotinylated hyaluronan binding protein (bHABP) (Seikagaku, Tokyo, Japan). The bHABP probe, diluted to 5 μg/ml in 3% bovine serum albumin (w/v), was added to the fixed cells and was incubated overnight at 4° C. After washing, avidin-fluorescein isothocyanate (FITC) was added.
(§5) HaCaT cells (FIG. 3a, FIG. 3b) and HDF cells (FIG. 3c, FIG. 3d) were cultured in the presence of 1 μM compound K (FIG. 3b, FIG. 3d) or in the absence of compound K (FIG. 3a, FIG. 3c).

HDF cells = assay: Hyaluronic acid production in cultured HDF cells, bHABP immunocytochemical staining; type: cell-based, human; conditions: 1 μM compound K, immunocytochemical method
Description: as §4, §5

hairless mouse skin = assay: Production of hyaluronic acid in hairless mouse skin, bHABP immunohistochemical staining and image analysis; type: in vivo; conditions: hairless mouse back skin, 1%(w/v) compound K solution topically
Description: Male albino Hos:hr-1 mice, 30 weeks old, were purchased from Biogenomics (Seoul, Korea) and had unrestricted access to standard rodent chow and water. After one week of acclimation under controlled conditions of 24±2° C. and 55±10% humidity, 200 μl of 1%(w/v) compound K solution in the vehicle (1,3-BG:ethanol-7:3) was topically applied onto the back of the mouse two times for 2 days. 24 hours after the final administration, each skin sample was collected.
Hyaluronan staining was carried out with bHABP(Seikagaku). Each skin sample was fixed with 2% formaldehyde and 0.5% glutaraldehyde in PBS, embedded and sectioned. After deparaffinization, sections were incubated in 0.3% H2O2 in methanol at room temperature for 30 min, washed with PBS, then blocked in 1% bovine serum albumin. Subsequently the sections were incubated in […] bHABP in PBS at 4° C. then, after washing, incubated with streptoavidin-peroxidase, diluted to 1/300 in PBS at room temperature, for 30 min. […]
Stained slides were quantitatively characterized via digital image analysis using ImagePro-Plus (Media Cybernetics, Silver Spring, Md.). […] Staining score is determined by the following formula 1: Intensity of stain X (total stained area/total area) Equation 1
One-way ANOVA with post-hog Duncan test was performed using SigmaStat (SPSS Inc., Chicago, Ill.). Data were expressed as the mean±SEM. […]

human skin = assay: Clinical trial of skin-care efficacy of emulsion containing compound K; type: in vivo
Description: In order to evaluate the efficacy of the cosmetic composition containing compound K, a clinical trial was conducted with forty-nine (49) healthy Korean females aged from 31 to 37 years and having facial wrinkle and fine wrinkle. They were divided into three groups by skin type: normal skin, dry skin and combination skin and used two kinds of oily-water emulsions containing 0.03% compound K or none. Before the trial, all the volunteers were evaluated for facial wrinkle and fine wrinkle with a global photodamage score. All the scores were obtained before use and 4, 8 and 12 weeks after use. Each volunteer applied test samples onto the facial skin twice per day (morning and evening) at their homes, and particularly onto the wrinkles of the eye rims. Skin-care efficacies such as facial wrinkle, fine wrinkle, hydration, elasticity, smoothness, roughness and brightness were evaluated by the volunteers and skin expert inspectors. Difference before and after using topical samples and improvement were determined by photometry evaluation with Camscope® (model DCS-105) and by image analysis of silicon replica with Skin-Visiometer SV 600 (Courage & Khazaka, Germany).

[3] = emulsion with 0.03% compound K, after 8 weeks of use

SMILES: CC(C)=CCC[C@](C)(OCC1OC(CO)C(O)C(O)C1O)C1CC[C@]2(C)C1C(O)CC1C3(C)CCC(O)C(C)(C)C3CCC12C (stereo partly drawn) [compound K, 20-O-β-D-glucopyranosyl-20(S)-protopanaxadiol]
- increase in HAS2 transcription (HAS2 gene [1]; 24 hours incubation): about 3 times
- increase in HAS2 transcription (HAS2 gene [1]; 48 hours incubation): about 5 times
- increase in HAS2 gene expression (HAS2 mRNA) versus control (HAS2 gene [1]; treatment with compound K for 24 hours, in comparison with no treatment): 3 times
- increase in HAS2 gene expression (HAS2 mRNA) versus control (HAS2 gene [2]): 2.5 times
- effect on HAS1 mRNA level (HAS1): did not influence
- effect on HAS3 mRNA level (HAS3): did not influence
- production of hyaluronic acid in cultured cells (HaCaT cells): increased production of hyaluronic acid was confirmed
- production of hyaluronic acid in cultured cells (HDF cells): increased production of hyaluronic acid was confirmed
- hyaluronic acid in skin (immunohistochemical staining) (hairless mouse skin): significantly increased
- wrinkle, hydration, elasticity, smoothness and brightness of human skin (human skin; compound K-containing topical composition applied onto the human skin): improved
- volunteers answering improvement in skin brightness (human skin; emulsion with 0.03% compound K): 68%
- volunteers answering improvement in skin elasticity (human skin; emulsion with 0.03% compound K): 68%
- volunteers answering improvement in skin roughness (human skin; emulsion with 0.03% compound K): 94%
- volunteers answering improvement in skin smoothness (human skin; emulsion with 0.03% compound K): 92%
- volunteers answering increase in skin moisturizing capacity (human skin; emulsion with 0.03% compound K): 88%
- facial wrinkle and fine wrinkle, global photodamage score by skin expert inspectors (human skin; emulsion with 0.03% compound K twice per day on facial skin, 12 weeks of use versus initial values and control emulsion): statistically significant decrease
- total wrinkle in skin replica analysis (human skin; [3]): decreased statistically significantly
- volunteers giving positive and affirmative estimate (human skin; [3]): 76%
- volunteers giving positive and affirmative estimate (human skin; emulsion with 0.03% compound K, after 12 weeks of use): 92%
